This is an account of results in paper PMC7897990, “TriTOX: A novel Trichomonas vaginalis assay platform for high-throughput screening of compound libraries” (International Journal for Parasitology: Drugs and Drug …, 2021).

Where two headings read alike, the source gives them in different places.

Data set [1] relates to Trichomonas vaginalis G3 trophozoites. The data set is described as follows: microbe, parasite or virus in culture. The settings on record: 48 h.
Data set [2] has the same test system. The following applies: for T.vaginalis_Absorbance_Rep1 / T.vaginalis_Absorbance_Rep2: HTS, parasite screen at 1 µg/mL; for T.vaginalis_Absorbance_Rep1: replicate 1, raw absorbance; for T.vaginalis_Absorbance_Rep2: replicate 2, raw absorbance.
The test system of data set [3] is nontumorigenic neonatal foreskin fibroblast (NFF) cell line. The following applies: NFF_NS1 screen at 5 µg/mL.
The mark [4] stands for this setting: read-out: T.vaginalis_%inb_Rep1.
[5] abbreviates: read-out: T.vaginalis_%inb_Rep2.

Take `COc1cc(C)c(C(=O)Oc2cc(C)c(C(=O)O)c(O)c2C)c(OC)c1C` [Diffractaic acid]: the inhibition of growth at 1 µg/mL was determined as 13.8% in data set [1] (setting [4]) and 12.3% in data set [1] (setting [5]). In addition, the T.vaginalis_Absorbance_Rep1 in data set [2] is on record as 0.965. In data set [2], the T.vaginalis_Absorbance_Rep2 is on record as 0.79. For the same compound, the NFF_Activity entry in data set [3] is “I (otherwise these were reported as inactive (I))”.
For `CC[C@@H]1C[C@H]2CC[C@H](O2)[C@H](C)C(=O)O[C@@H](C)C[C@@H]2CC[C@@H](O2)[C@@H](C)C(=O)O[C@H](CC)C[C@H]2CC[C@H](O2)[C@H](C)C(=O)O[C@@H](C)C[C@@H]2CC[C@@H](O2)[C@@H](C)C(=O)O1` [Dinactin] the same measures were 8.56%, 8.17%, 0.868, 0.733 and “I (otherwise these were reported as inactive (I))”.
As for `C=CC(C)(C)c1[nH]c2c(CC=C(C)C)cc(CC=C(C)C)cc2c1C[C@@H]1NC(=O)[C@H](C)NC1=O` [Echinulin], the inhibition of growth at 1 µg/mL in data set [1] (setting [4]) is 15.7%. Further, in data set [1] (setting [5]), the inhibition of growth at 1 µg/mL turned out to be 16.6%. In data set [2], this compound had a T.vaginalis_Absorbance_Rep1 of 1.001 and a T.vaginalis_Absorbance_Rep2 of 0.85. For the same compound, the NFF_Activity result in data set [3] was “I (otherwise these were reported as inactive (I))”.
As to `CC[C@H](C)[C@H]1C(=O)O[C@H](C(C)C)C(=O)N(C)[C@@H](C(C)C)C(=O)O[C@H](C(C)C)C(=O)N(C)[C@@H](C(C)C)C(=O)O[C@H](C(C)C)C(=O)N1C` [Enniatin B1], the figures for the inhibition of growth at 1 µg/mL in data set [1] (setting [4]) and in data set [1] (setting [5]) were 13.9% and 15%, respectively. Further, in data set [2], the T.vaginalis_Absorbance_Rep1 is reported as 0.967. In data set [2], this compound showed a T.vaginalis_Absorbance_Rep2 of 0.828. For the same compound, the NFF_Activity result in data set [3] is “I (otherwise these were reported as inactive (I))”.
For `CC(C)[C@H]1C(=O)O[C@H](C(C)C)C(=O)N(C)[C@@H](C(C)C)C(=O)O[C@H](C(C)C)C(=O)N(C)[C@@H](C(C)C)C(=O)O[C@H](C(C)C)C(=O)N1C` [Enniatin B] the same measures were 15.2%, 5.42%, 0.992, 0.695 and “I (otherwise these were reported as inactive (I))”.
As to `C/C(=C\c1csc(C)n1)[C@@H]1C[C@@H]2O[C@@H]2CCC[C@H](C)[C@H](O)[C@@H](C)C(=O)C(C)(C)[C@@H](O)CC(=O)O1` [Epothilone A], the figures for the inhibition of growth at 1 µg/mL in data set [1] (setting [4]) and in data set [1] (setting [5]) were 71.4% and 87%, respectively. Besides, in data set [2], the T.vaginalis_Absorbance_Rep1 was 2.11. The T.vaginalis_Absorbance_Rep2 in data set [2] was determined as 1.991. Also, in data set [3], the NFF_Activity result was “I (otherwise these were reported as inactive (I))”.
The matching figures for `COc1cc(C)c(C(=O)Oc2cc(C)c(C(=O)O)c(O)c2)c(O)c1` [Evernic acid]: 11.5%, 11.2%, 0.922, 0.775 and “I (otherwise these were reported as inactive (I))”.
For `CO[C@H]1C[C@@H]2CC[C@@H](C)[C@@](O)(O2)C(=O)C(=O)N2CCCC[C@H]2C(=O)O[C@H]([C@H](C)C[C@@H]2CC[C@@H](OCCO)[C@H](OC)C2)CC(=O)[C@H](C)/C=C(\C)[C@@H](O)[C@@H](OC)C(=O)[C@H](C)C[C@H](C)/C=C/C=C/C=C/1C` [Everolimus] the same measures were 14.8%, 10.1%, 0.983, 0.76 and “I (otherwise these were reported as inactive (I))”.
On to `CCCCC[C@@H](O)[C@H]1C(=O)O[C@H](C)[C@@H](O)/C=C/C=C/C=C/C=C/C=C(\C)[C@@H](O)C[C@H](O)C[C@H](O)C[C@H](O)C[C@H](O)C[C@H](O)C[C@@H]1O` [Filipin III], for which the inhibition of growth at 1 µg/mL in data set [1] (setting [4]) was 15.8%. In data set [1] (setting [5]), the inhibition of growth at 1 µg/mL was found to be 12.6%. In data set [2], this compound yielded a T.vaginalis_Absorbance_Rep1 of 1.003 and a T.vaginalis_Absorbance_Rep2 of 0.794. Moreover, in data set [3], the NFF_Activity result is “I (otherwise these were reported as inactive (I))”.
For `C[C@@](O)(/C=C/[C@H]1CC=CC(=O)O1)[C@@H](C[C@@H](O)\C=C/C=C\C=C\CO)OP(=O)(O)O` [Fostriecin] the same measures were 13.7%, 13.8%, 0.964, 0.811 and “I (otherwise these were reported as inactive (I))”.
The matching figures for `Cc1cc(O)c(C=O)c2c1C(=O)Oc1c(COC(=O)/C=C/C(=O)O)c(O)c(C(=O)O)c(C)c1O2` [Fumarprotocetraric acid]: 13.1%, 15.8%, 0.953, 0.839 and “I (otherwise these were reported as inactive (I))”.
For the compound `C[C@H]1C(=O)N2c3ccccc3[C@@]3(O)C[C@@H]4C(=O)N[C@](C)(c5nc6ccccc6c(=O)n54)N1[C@@H]23` [Fumiquinazoline D], the inhibition of growth at 1 µg/mL in data set [1] (setting [4]) is 13.7%. Besides, in data set [1] (setting [5]), the inhibition of growth at 1 µg/mL was 15.9%. In data set [2], the T.vaginalis_Absorbance_Rep1 is 0.964 and the T.vaginalis_Absorbance_Rep2 was 0.84. Also, in data set [3], the NFF_Activity result is “I (otherwise these were reported as inactive (I))”.
As to `CCCCc1ccc(C(=O)O)nc1` [Fusaric acid], the inhibition of growth at 1 µg/mL in data set [1] (setting [4]) is 13.9%; in data set [1] (setting [5]) it was 15.8%. The compound further returned a T.vaginalis_Absorbance_Rep1 in data set [2] of 0.976. Also, in data set [2], the T.vaginalis_Absorbance_Rep2 is 0.881. Moreover, the NFF_Activity result in data set [3] is “I (otherwise these were reported as inactive (I))”.
The matching figures for `O=c1c(-c2ccc(O)cc2)coc2cc(O)cc(O)c12` [Genistein]: 15.3%, 12.4%, 1.004, 0.828 and “I (otherwise these were reported as inactive (I))”.
Regarding `C=Cc1cc(OC)c2c(c1)c(=O)oc1c2cc(OC)c2c(O)ccc([C@H]3O[C@H](C)[C@H](O)[C@H](O)[C@H]3O)c21` [Gilvocarcin V], the inhibition of growth at 1 µg/mL in data set [1] (setting [4]) was 4.46%. Moreover, the inhibition of growth at 1 µg/mL in data set [1] (setting [5]) stood at 4.55%. In data set [2], the T.vaginalis_Absorbance_Rep1 came to 0.79 and the T.vaginalis_Absorbance_Rep2 turned out to be 0.706. Besides, the NFF_Activity result in data set [3] is “I (otherwise these were reported as inactive (I))”.
As for `C/C(=C\c1csc(C)n1)[C@@H]1C[C@@H]2O[C@]2(C)CCC[C@H](C)[C@H](O)[C@@H](C)C(=O)C(C)(C)[C@@H](O)CC(=O)O1` [epothilone B, reference compound], in data set [1] (setting [4]), the inhibition of growth at 1 µg/mL came out at 74.9%. In addition, the inhibition of growth at 1 µg/mL in data set [1] (setting [5]) was determined as 67.3%. In data set [2], the T.vaginalis_Absorbance_Rep1 is given as 2.179 and the T.vaginalis_Absorbance_Rep2 was determined as 1.684. Moreover, the “selectivity: anti-trichomonal vs anti-tumour (NS-1) and cytotoxic (NFF) activity” value in data set [2] (single concentration screens of the same library, NS-1/NFF active if >25% inhibition) is on record as “selective for T. vaginalis”. The NFF_Activity result in data set [3] was “I (otherwise these were reported as inactive (I))”.
